Reference: publication PMC9404989, “Design and Evaluation of Short Bovine Lactoferrin-Derived Antimicrobial Peptides against Multidrug-Resistant Enterococcus faecium” (Antibiotics, 2022)
Where two headings read alike, the source gives them in different places. No end group written: not given here.

How the values were obtained:
E. faecium = experiment: Antibacterial activity of native LfcinB6; format: cell-based, Enterococcus faecium; settings: strain and source not given
E. faecalis V583 = experiment: microbe, parasite or virus in culture; format: cell-based; settings: V583, 18 h
Procedure: (§1) To determine the MICs of peptides, we used the broth microdilution method described by the Clinical and Laboratory Standards Institute. We made serial dilutions of 10× concentration (10 µL) for each peptide in duplicates in 96-well plates (Cat No. 3595, Corning, New York, NY, USA). We added 90 µL of logarithmic-phase bacteria at 5 × 10^5 CFU/mL (in BHI media) to the peptides and then incubated the plates at 37 °C for 18 h. We measured the OD600 absorbance readings using the Spectra Max i3x spectrophotometer (Molecular Devices, San Jose, CA, USA) and determined the MIC as the peptide concentration that inhibits the growth of bacteria.

E. faecalis MMH594 = experiment: microbe, parasite or virus in culture; format: cell-based; settings: MMH594, 18 h
Procedure: as §1

E. faecium D24 = experiment: microbe, parasite or virus in culture; format: cell-based, Enterococcus faecium; settings: D24, 18 h
Procedure: as §1

E. faecium D29 = experiment: microbe, parasite or virus in culture; format: cell-based, Enterococcus faecium; settings: D29, 18 h
Procedure: as §1

E. faecium E007 = experiment: microbe, parasite or virus in culture; format: cell-based, Enterococcus faecium; settings: E007, 18 h
Procedure: as §1

E. faecium D14 = experiment: microbe, parasite or virus in culture; format: cell-based, Enterococcus faecium; settings: D14, 18 h
Procedure: as §1

E. faecium D25 = experiment: microbe, parasite or virus in culture; format: cell-based, Enterococcus faecium; settings: D25, 18 h
Procedure: as §1

E. faecium strain C68 [1] = experiment: microbe, parasite or virus in culture; format: cell-based, Enterococcus faecium; settings: strain C68, 18 h
Procedure: as §1

E. faecium strain C68 [2] = experiment: microbe, parasite or virus in culture; format: cell-based, Enterococcus faecium; settings: strain C68, 18 h; remark: listed apart in the source
Procedure: as §1
To investigate the activity of peptides in various salt concentrations, we included physiologically relevant salts in the BHI medium.

E. faecalis OG1RF = experiment: MIC assay, E. faecalis OG1RF; format: cell-based; settings: rifampin and fusidic acid resistant
Procedure: as §1

[3] = HPLC retention time on C18 reverse-phase column; format: physicochemical
Text: Table 1 Physical parameters and the minimal inhibitory concentration (µg/mL) of designed peptides against E. faecium. | column: rT ^f (min)

S. aureus MW2 = experiment: microbe, parasite or virus in culture; format: cell-based, Staphylococcus aureus; settings: MW2, 18 h
Procedure: as §1

[4] = test system: E. faecium strain C68 established biofilms; format: cell-based, Enterococcus faecium
Procedure: We prepared exponential cultures of E. faecium strain C68 (adjusted to 1 × 10^8 CFU/mL) in BHI media (supplemented with 0.2% glucose) from overnight grown cultures. We added 100 µL of the bacterial culture to wells of flat-bottomed 96-well polystyrene microtiter plates (Cat No. 3595, Corning, NY, USA). We then incubated the plates at 37 °C for 24 h in static conditions to allow biofilm formation. After incubation, we carefully pipetted out the media and washed the wells with PBS (Gibco, Waltham, MA, USA) to remove loosely attached planktonic cells. We treated the established biofilms in each well with 10 µL of serially diluted 10× peptide solution, followed by the addition of 90 μL of BHI media (supplemented with 0.2% glucose). The plates were incubated for another 24 h at 37 °C before processing for biomass and live-cell contents. We quantitated the concentration of peptide that disrupts 50% of established biofilms (MBEC50).

[5] = test system: E. faecium E007 established biofilms; format: cell-based, Enterococcus faecium; settings: for concentration killing 50% of live bacteria cells in established biofilms: strain E007, 24 h established biofilms, XTT; for established biomass disrupted: strain E007, at 32 µg/mL
E. faecium WC176 = experiment: organism not typed; format: cell-based, Enterococcus faecium; settings: WC176, 18 h
Procedure: as §1

[6] = test system: drug-resistant E. faecium clinical isolates; format: cell-based, Enterococcus faecium; settings: strains D14, D24, D25, D29, C68 and WC176
Procedure: as §1

[7] = test system: E. faecium C68 biofilm formation; experiment: Prevention of E. faecium biofilm formation (XTT, crystal violet); format: cell-based, Enterococcus faecium; settings: XTT, 24 h, BHI + 0.2% glucose
Procedure: We evaluated the ability of the lactoferrin-derived peptides to inhibit biofilm formation following an established protocol with modifications. In short, we prepared exponential cultures of E. faecium C68 (adjusted to OD600 = 0.01) in BHI media (supplemented with 0.2% glucose) from overnight grown cultures. We added 90 µL of the bacterial culture to 10 µL of serially diluted 10× peptide solution in flat-bottomed 96-well polystyrene microtiter plates (Cat No. 3595, Corning, NY, USA) and then incubated the plates at 37 °C for 24 h. We considered media containing bacteria and water as the positive control, while media with water served as the negative control. After incubation, we carefully pipetted out the media and washed the wells with PBS (Gibco, Waltham, MA, USA) to remove loosely attached planktonic cells. We quantified the biomass by staining the biofilms with crystal violet following an established protocol and quantitated the concentration of peptide that inhibits 50% of biofilm formation (MBIC50). Furthermore, we measured the live cell count of the biofilms using XTT [2,3-bis(2-methyloxy-4-nitro-5-sulfophenyl)-2H-tertazolium-5-carboxanilide] dye (ATCC, Manassas, VA, USA). We calculated the percentage of biofilm growth by assuming that there was 100% biofilm growth in wells with bacteria without peptide treatment.

RRWQWR [LfcinB6]
activity against E. faecium (E. faecium): inactive

RRWLWRRLWLWR-NH2 [Peptide 7L]
MIC E. faecalis V583 (E. faecalis V583): > 32 µg/mL | MIC E. faecalis MMH594 (E. faecalis MMH594): > 32 µg/mL | MIC D24 (E. faecium D24): 4 µg/mL | MIC D29 (E. faecium D29): 8 µg/mL | MIC E007 (E. faecium E007): 4 µg/mL | MIC D14 (E. faecium D14): 8 µg/mL | MIC D25 (E. faecium D25): 4 µg/mL | MIC EF C68 (E. faecium strain C68 [1]): 4 µg/mL | MIC Media Only (E. faecium strain C68 [1]): 4 µg/mL | MIC + CaCl2 (2.5 mM) (E. faecium strain C68 [2]): 8 µg/mL | MIC + MgSO4 (1 mM) (E. faecium strain C68 [2]): 4 µg/mL | MIC + NaCl (150 mM) (E. faecium strain C68 [2]): 4 µg/mL | MIC + ZnSO4 (8 µM) (E. faecium strain C68 [2]): 2 µg/mL | MIC E. faecalis OG1RF (E. faecalis OG1RF): > 32 µg/mL | rT (HPLC retention time) [3]: 16.290 min | MIC S. aureus MW2 (S. aureus MW2): > 32 µg/mL | MBEC50 (established biomass) ([4]; 24 h established biofilms, 24 h treatment, crystal violet): failed to achieve an MBEC50 | concentration killing 50% of live bacteria cells in established biofilms [5]: > 32 µg/mL | established biomass disrupted [5]: 25–30% | MIC WC176 (E. faecium WC176): 16 µg/mL

RRWLWRRRWLWL-NH2 [Peptide 8L]
MIC E. faecalis V583 (E. faecalis V583): > 32 µg/mL | MIC E. faecalis MMH594 (E. faecalis MMH594): > 32 µg/mL | MIC D24 (E. faecium D24): 8 µg/mL | MIC D29 (E. faecium D29): 32 µg/mL | MIC E007 (E. faecium E007): 4 µg/mL | MIC D14 (E. faecium D14): 16 µg/mL | MIC D25 (E. faecium D25): 8 µg/mL | MIC EF C68 (E. faecium strain C68 [1]): 4 µg/mL | MIC Media Only (E. faecium strain C68 [1]): 4 µg/mL | MIC + CaCl2 (2.5 mM) (E. faecium strain C68 [2]): 16 µg/mL | MIC + MgSO4 (1 mM) (E. faecium strain C68 [2]): 4 µg/mL | MIC + NaCl (150 mM) (E. faecium strain C68 [2]): 4 µg/mL | MIC + ZnSO4 (8 µM) (E. faecium strain C68 [2]): 2 µg/mL | MIC E. faecalis OG1RF (E. faecalis OG1RF): > 32 µg/mL | rT (HPLC retention time) [3]: 21.235 min | MIC S. aureus MW2 (S. aureus MW2): > 32 µg/mL | MIC range against clinical isolates of E. faecium [6]: 8 to 32 µg/mL | MBEC50 (established biomass) ([4]; strain C68 established biofilms, 24 h): 30 µg/mL | concentration killing 50% of live bacteria cells in established biofilms [5]: > 32 µg/mL | established biomass disrupted [5]: 25–30% | concentration killing 50% of live bacterial cells during biofilm formation stage [7]: 2.8 µg/mL | MIC WC176 (E. faecium WC176): 16 µg/mL
